Measured values published in patent US20250326732A1 (Pretzel Therapeutics, Inc., priority 2021, published 2025).

Target: POLRMT (Homo sapiens (Human), UniProt O00411)
Test: homogeneous TR-FRET assay of mitochondrial transcription (inhibition of POLRMT)
Format: biochemical
Conditions: 7.5 nM POLRMT, 15 nM TFB2M, 30 nM TFAM, 0.5 nM DNA template, 500 μM NTPs, 37° C. for 60 minutes
Procedure: The ability of some compounds of the present invention to inhibit POLRMT were determined in a homogeneous TR-FRET Assay using high-throughput screening in a 384-well plate format. […] Detection of the product is facilitated by hybridization of two DNA-oligonucleotide probes to specific and adjacent sequences within the RNA product sequence. Upon annealing of the probes, two fluorophores are coupled directly to an acceptor nucleotide probe (ATTO647, 5′), or introduced via a coupled streptavidin with a biotinylated donor nucleotide probe (Europium cryptate) that is brought into sufficient proximity to serve as a fluorescence-donor-acceptor pair. Thus, a FRET signal at 665 nm is generated upon excitation at 340 nm.
The DNA template is restriction linearized proximal to the promotor 3′-end (pUC-LSP). […] No nucleotide triphosphate mix is added to negative control samples. Microplates with compounds to be tested in the assay are prepared from 10 mM compound stocks in 100% DMSO, equal amounts of DMSO without any compound are added to positive control and negative control samples.
During the incubation, a mix of the detection reagents is prepared in a buffer such that the enzymatic reaction is terminated due to chelating of Mg-ions and increased ionic strength, containing 50 mM Tris-HCl (pH 7.5), 700 mM NaCl, 20 mM EDTA, and 0.01% (w/v) Tween-20. Europium-streptavidin is pre-incubated with a 200-fold molar excess of a random sequence oligonucleotide to block unspecific binding of oligo, for two hours at ambient temperature in the dark. Afterwards, the blocked Europium-streptavidin is kept on ice until use.
At the end of the enzymatic reaction time, 5 μL detection oligo mix in the detection buffer is added, and assay plates are mixed and kept at ambient temperature for one hour, protected from light. The concentration of the Acceptor nucleotide oligo (e.g., ATTO647N-5′-[…]-3′) and Donor nucleotide oligo (e.g., bio-5′-[…](-bio)[…]-bio-3′) in each assay well is 1 nM, and 3 nM, respectively.
After incubation with oligo mix, 5 μL of pre-blocked Europium-streptavidin reagent is dispensed to each assay well, assay plates are again mixed and kept at ambient temperature for one hour, protected from light.
The generated signal is measured with BMG Pherastar microtiter plate reader with a TRF light unit, using excitation at 340 nm, an integration time of 200 μs, and a delay time of 100 μs, before detection at 620 nm and 665 nm. The ratio of donor- and acceptor-fluorescence is used as a measure of the generated transcript product (i.e. enzymatic activity).

Chain of POLRMT (O00411 42-1230): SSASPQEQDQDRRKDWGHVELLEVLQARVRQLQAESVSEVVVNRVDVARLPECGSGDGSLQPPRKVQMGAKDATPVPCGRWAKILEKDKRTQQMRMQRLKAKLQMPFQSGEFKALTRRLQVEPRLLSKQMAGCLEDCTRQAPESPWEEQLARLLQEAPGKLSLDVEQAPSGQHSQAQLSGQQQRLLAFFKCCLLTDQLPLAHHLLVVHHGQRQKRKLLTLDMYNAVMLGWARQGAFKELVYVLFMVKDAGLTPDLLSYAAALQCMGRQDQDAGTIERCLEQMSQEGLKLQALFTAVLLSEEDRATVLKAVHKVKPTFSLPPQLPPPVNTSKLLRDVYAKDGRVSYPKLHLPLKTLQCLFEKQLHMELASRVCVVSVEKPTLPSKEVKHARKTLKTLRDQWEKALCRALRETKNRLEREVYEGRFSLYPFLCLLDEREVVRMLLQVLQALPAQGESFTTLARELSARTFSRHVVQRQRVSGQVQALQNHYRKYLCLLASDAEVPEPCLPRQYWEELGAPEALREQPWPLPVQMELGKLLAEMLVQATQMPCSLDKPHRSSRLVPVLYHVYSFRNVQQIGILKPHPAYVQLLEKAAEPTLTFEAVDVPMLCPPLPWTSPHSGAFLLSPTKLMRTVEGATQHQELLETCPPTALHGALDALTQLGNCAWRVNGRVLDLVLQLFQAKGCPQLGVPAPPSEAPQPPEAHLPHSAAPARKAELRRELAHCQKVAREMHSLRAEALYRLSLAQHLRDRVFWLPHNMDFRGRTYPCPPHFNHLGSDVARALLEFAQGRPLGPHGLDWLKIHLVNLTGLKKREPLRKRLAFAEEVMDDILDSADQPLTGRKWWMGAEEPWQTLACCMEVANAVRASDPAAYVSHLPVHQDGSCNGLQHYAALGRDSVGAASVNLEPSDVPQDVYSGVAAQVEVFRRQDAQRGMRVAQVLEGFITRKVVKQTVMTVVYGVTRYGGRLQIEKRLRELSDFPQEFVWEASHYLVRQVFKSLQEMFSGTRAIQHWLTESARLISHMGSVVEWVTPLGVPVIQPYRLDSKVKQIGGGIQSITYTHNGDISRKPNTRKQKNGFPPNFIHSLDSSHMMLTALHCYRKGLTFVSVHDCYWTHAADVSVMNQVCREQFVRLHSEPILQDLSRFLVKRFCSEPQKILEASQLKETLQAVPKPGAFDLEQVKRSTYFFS

**Q.** With CCOC(=O)[C@@H](C)Nc1ccc2c(-c3ccc(F)cc3Cl)cc(=O)oc2c1 [Example 26, ethyl (4-(2-chloro-4-fluorophenyl)-2-oxo-2H-chromen-7-yl)-D-alaninate] as the compound, how does the IC50 read?
**A.** 400 nM

**Q.** Which IC50 does the source give for C[C@@H](Nc1ccc2c(-c3ccc(F)cc3Cl)cc(=O)oc2c1)C(=O)N1CCCCC1 [Example 27, (R)-4-(2-chloro-4-fluorophenyl)-7-((1-oxo-1-(piperidin-1-yl)propan-2-yl)amino)-2H-chromen-2-one] here?
**A.** 100 nM

**Q.** For C[C@@H](Nc1ccc2c(-c3ccc(F)cc3Cl)cc(=O)oc2c1)C(=O)N(C)C [Example 28, (R)-2-((4-(2-chloro-4-fluorophenyl)-2-oxo-2H-chromen-7-yl)amino)-N,N-dimethylpropanamide], which IC50 is on record?
**A.** 800 nM

**Q.** With COc1ccccc1-c1cc(=O)oc2cc(NC(C)=O)ccc12 [Example 29, N-(4-(2-methoxyphenyl)-2-oxo-2H-chromen-7-yl)acetamide] as the compound, how does the IC50 read?
**A.** > 100000 nM

**Q.** How did the IC50 turn out when COc1ccccc1-c1cc(=O)oc2cc(NC(=O)C(C)C)ccc12 [Example 30, N-(4-(2-methoxyphenyl)-2-oxo-2H-chromen-7-yl) isobutyramide] was run?
**A.** > 100000 nM

**Q.** How did the IC50 turn out when CN(C)c1ccc2c(-c3ccc(F)cc3Cl)cc(=O)oc2c1 [Example 31, 4-(2-chloro-4-fluorophenyl)-7-(dimethylamino)-2H-chromen-2-one] was run?
**A.** 400 nM

**Q.** For CC(=O)Nc1ccc2c(-c3ccccc3C)cc(=O)oc2c1 [Example 32, N-(2-oxo-4-(o-tolyl)-2H-chromen-7-yl)acetamide], which IC50 is on record?
**A.** 400 nM

**Q.** Which IC50 does the source give for Cc1ccccc1-c1cc(=O)oc2cc(NC(=O)C(C)C)ccc12 [Example 33, N-(2-oxo-4-(o-tolyl)-2H-chromen-7-yl) isobutyramide] here?
**A.** 300 nM

**Q.** With Cc1ccccc1-c1cc(=O)oc2cc(C(=O)N(C)C)ccc12 [Example 34, N,N-dimethyl-2-oxo-4-(o-tolyl)-2H-chromene-7-carboxamide] as the compound, how does the IC50 read?
**A.** 2000 nM

**Q.** Which IC50 does the source give for Cc1ccccc1-c1cc(=O)oc2cc(C(=O)Nc3ccccc3)ccc12 [Example 35, 2-oxo-N-phenyl-4-(o-tolyl)-2H-chromene-7-carboxamide] here?
**A.** 2000 nM

**Q.** Which IC50 does the source give for Cc1ccccc1-c1cc(=O)oc2cc(C(=O)NC3CCCC3)ccc12 [Example 36, N-cyclopentyl-2-oxo-4-(o-tolyl)-2H-chromene-7-carboxamide] here?
**A.** 2000 nM

**Q.** Cc1ccccc1-c1cc(=O)oc2cc(C(=O)N3CCCCC3)ccc12 [Example 37, 7-(piperidine-1-carbonyl)-4-(o-tolyl)-2H-chromen-2-one] was tested. Which IC50 did it give?
**A.** 1000 nM

**Q.** With O=C(OCc1ccc2c(-c3ccc(F)cc3Cl)cc(=O)oc2c1)N1CCCCC1 [Example 38, (4-(2-chloro-4-fluorophenyl)-2-oxo-2H-chromen-7-yl)methyl piperidine-1-carboxylate] as the compound, how does the IC50 read?
**A.** 600 nM

**Q.** For Cc1ccc2c(-c3ccccc3C)cc(=O)oc2c1 [Example 39, 7-methyl-4-(o-tolyl)-2H-chromen-2-one], which IC50 is on record?
**A.** 700 nM

**Q.** How did the IC50 turn out when CC(O)c1ccc2c(-c3ccc(F)cc3Cl)cc(=O)oc2c1 (stereo not shown) [Example 40, 4-(2-chloro-4-fluorophenyl)-7-(1-hydroxyethyl)-2H-chromen-2-one] was run?
**A.** 2000 nM

**Q.** For Cc1ccccc1-c1cc(=O)oc2cc(C#N)ccc12 [Example 43, 2-oxo-4-(o-tolyl)-2H-chromene-7-carbonitrile], which IC50 is on record?
**A.** 13000 nM

**Q.** How did the IC50 turn out when CC(=O)N(C)c1ccc2c(-c3ccccc3C)cc(=O)oc2c1 [Example 44, N-methyl-N-(2-oxo-4-(o-tolyl)-2H-chromen-7-yl)acetamide] was run?
**A.** 12000 nM

**Q.** C[C@H](C(=O)N1CCCCC1)N(C)c1ccc2c(-c3ccc(F)cc3Cl)cc(=O)oc2c1 [Example 45, (R)-4-(2-chloro-4-fluorophenyl)-7-(methyl(1-oxo-1-(piperidin-1-yl)propan-2-yl)amino)-2H-chromen-2-one] was tested. Which IC50 did it give?
**A.** 50 nM

**Q.** C[C@H](C(=O)N(C)C)N(C)c1ccc2c(-c3ccc(F)cc3Cl)cc(=O)oc2c1 [Example 46, (R)-2-((4-(2-chloro-4-fluorophenyl)-2-oxo-2H-chromen-7-yl)(methyl)amino)-N,N-dimethylpropanamide] was tested. Which IC50 did it give?
**A.** 50 nM

**Q.** For C[C@@H](Nc1ccc2c(-c3ccc(F)cc3Cl)cc(=O)oc2c1)C(=O)N1CCOCC1 [Example 47, (R)-4-(2-chloro-4-fluorophenyl)-7-((1-morpholino-1-oxopropan-2-yl)amino)-2H-chromen-2-one], which IC50 is on record?
**A.** 400 nM

**Q.** CCNC(=O)[C@@H](C)Nc1ccc2c(-c3ccc(F)cc3Cl)cc(=O)oc2c1 [Example 48, (R)-2-((4-(2-chloro-4-fluorophenyl)-2-oxo-2H-chromen-7-yl)amino)-N-ethylpropanamide] was tested. Which IC50 did it give?
**A.** 3000 nM

**Q.** With Cc1ccccc1-c1cc(=O)oc2cc(CCC(=O)N3CCCCC3)ccc12 [Example 49, 7-(3-oxo-3-(piperidin-1-yl)propyl)-4-(o-tolyl)-2H-chromen-2-one] as the compound, how does the IC50 read?
**A.** 1000 nM

**Q.** CCOC(=O)/C(C)=C/c1ccc2c(-c3ccccc3C)cc(=O)oc2c1 [Example 50, ethyl (E)-2-methyl-3-(2-oxo-4-(o-tolyl)-2H-chromen-7-yl)acrylate] was tested. Which IC50 did it give?
**A.** 2000 nM

**Q.** Which IC50 does the source give for CCOC(=O)C(C)Cc1ccc2c(-c3ccccc3C)cc(=O)oc2c1 (stereo not shown) [Example 51, ethyl 2-methyl-3-[4-(o-tolyl)-2-oxo-chromen-7-yl]propanoate] here?
**A.** 300 nM

**Q.** For Cc1ccccc1-c1cc(=O)oc2cc(CC(C)C(=O)O)ccc12 (stereo not shown) [Example 52, 2-methyl-3-[4-(o-tolyl)-2-oxo-chromen-7-yl]propanoic acid], which IC50 is on record?
**A.** 200 nM

**Q.** How did the IC50 turn out when CCOC(=O)/C=C/c1ccc2c(-c3ccccc3C)cc(=O)oc2c1 [Example 53, ethyl (E)-3-(2-oxo-4-(o-tolyl)-2H-chromen-7-yl)acrylate] was run?
**A.** 2000 nM

**Q.** How did the IC50 turn out when CCOC(=O)CCc1ccc2c(-c3ccccc3C)cc(=O)oc2c1 [Example 54, ethyl 3-(2-oxo-4-(o-tolyl)-2H-chromen-7-yl)propanoate] was run?
**A.** 900 nM

**Q.** Which IC50 does the source give for C[C@H](C(=O)N1CCOCC1)N(C)c1ccc2c(-c3ccc(F)cc3Cl)cc(=O)oc2c1 [Example 55, (R)-4-(2-chloro-4-fluorophenyl)-7-(methyl(1-morpholino-1-oxopropan-2-yl)amino)-2H-chromen-2-one] here?
**A.** 70 nM

**Q.** For CCNC(=O)[C@@H](C)N(C)c1ccc2c(-c3ccc(F)cc3Cl)cc(=O)oc2c1 [Example 56, (R)-2-((4-(2-chloro-4-fluorophenyl)-2-oxo-2H-chromen-7-yl)(methyl)amino)-N-ethylpropanamide], which IC50 is on record?
**A.** 200 nM

**Q.** Which IC50 does the source give for COC(=O)/C=C(\C)c1ccc2c(-c3ccccc3C)cc(=O)oc2c1 [Example 57, methyl (E)-3-(2-oxo-4-(o-tolyl)-2H-chromen-7-yl)but-2-enoate] here?
**A.** 300 nM

**Q.** With COC(=O)CC(C)c1ccc2c(-c3ccccc3C)cc(=O)oc2c1 (stereo not shown) [Example 58, methyl 3-(2-oxo-4-(o-tolyl)-2H-chromen-7-yl)butanoate] as the compound, how does the IC50 read?
**A.** 3000 nM

**Q.** With Cc1ccccc1-c1cc(=O)oc2cc(C(C)CC(=O)N3CCCCC3)ccc12 (stereo not shown) [Example 59, 7-(4-oxo-4-(piperidin-1-yl)butan-2-yl)-4-(o-tolyl)-2H-chromen-2-one] as the compound, how does the IC50 read?
**A.** 2000 nM

**Q.** How did the IC50 turn out when Cc1ccccc1-c1cc(=O)oc2cc(N[C@@H](CC(C)C)C(=O)OC(C)(C)C)ccc12 [Example 60, tert-butyl (2-oxo-4-(o-tolyl)-2H-chromen-7-yl)-L-leucinate] was run?
**A.** 8000 nM

**Q.** Which IC50 does the source give for Cc1ccccc1-c1cc(=O)oc2cc(NCC(=O)OC(C)(C)C)ccc12 [Example 61, tert-butyl (2-oxo-4-(o-tolyl)-2H-chromen-7-yl)glycinate] here?
**A.** 900 nM

**Q.** Cc1ccccc1-c1cc(=O)oc2cc(N(C)CC(=O)OC(C)(C)C)ccc12 [Example 70, tert-butyl N-methyl-N-(2-oxo-4-(o-tolyl)-2H-chromen-7-yl)glycinate] was tested. Which IC50 did it give?
**A.** 40 nM

**Q.** With Cc1ccccc1-c1cc(=O)oc2cc(NCC(=O)O)ccc12 [Example 71, (2-oxo-4-(o-tolyl)-2H-chromen-7-yl)glycine] as the compound, how does the IC50 read?
**A.** 6000 nM

**Q.** Which IC50 does the source give for Cc1ccccc1-c1cc(=O)oc2cc(NCC(=O)N3CCCCC3)ccc12 [Example 72, 7-((2-oxo-2-(piperidin-1-yl)ethyl)amino)-4-(o-tolyl)-2H-chromen-2-one] here?
**A.** 3000 nM

**Q.** With Cc1ccccc1-c1cc(=O)oc2cc(N[C@@H](CC(C)C)C(=O)O)ccc12 [Example 73, (2-oxo-4-(o-tolyl)-2H-chromen-7-yl)-L-leucine] as the compound, how does the IC50 read?
**A.** 3000 nM

**Q.** For COC(C)c1ccc2c(-c3ccccc3C)cc(=O)oc2c1 (stereo not shown) [Example 74, 7-(1-methoxyethyl)-4-(o-tolyl)-2H-chromen-2-one], which IC50 is on record?
**A.** 700 nM

**Q.** How did the IC50 turn out when Cc1ccccc1-c1cc(=O)oc2cc(N(C)[C@H](C)C(=O)N3CCC[C@H](C(=O)O)C3)ccc12 [Example 75, (S)-1-(N-methyl-N-(2-oxo-4-(o-tolyl)-2H-chromen-7-yl)-D-alanyl)piperidine-3-carboxylic acid] was run?
**A.** 30 nM
